{"source": "paper PMC8151276", "about": "“An Integrated Approach toward NanoBRET Tracers for Analysis of GPCR Ligand Engagement” (Molecules, 2021)", "type_in_all_cases": "binding", "key": {"[1]": {"target": "T1, C5AR2 (Homo sapiens, UniProt Q9P296)", "T1 construct": "purchased Promega (in-house HiBiT-GPCR construct library, NanoBRET)", "T1 sequence (Q9P296 whole entry)": "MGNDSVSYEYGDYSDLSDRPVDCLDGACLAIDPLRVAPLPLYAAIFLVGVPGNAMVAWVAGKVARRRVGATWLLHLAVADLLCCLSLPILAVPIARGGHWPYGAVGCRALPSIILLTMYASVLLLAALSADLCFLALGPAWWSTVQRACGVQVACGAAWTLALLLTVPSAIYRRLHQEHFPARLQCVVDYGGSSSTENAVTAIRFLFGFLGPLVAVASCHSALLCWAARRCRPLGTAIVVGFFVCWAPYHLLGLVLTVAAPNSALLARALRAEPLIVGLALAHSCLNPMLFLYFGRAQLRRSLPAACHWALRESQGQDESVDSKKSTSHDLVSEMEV", "test": "NanoBRET screen HiBiT-C5AR2 in HEK293", "protocol": "(§1) Each tracer candidate was screened across the entire library of HiBiT-GPCR constructs using NanoBRET as the detection modality. As depicted in Figure 4A, the specificity of interactions was evaluated through decrease in BRET due to competitive displacement of a bound tracer by excess parental compound. Each tracer was analyzed for binding to each HiBiT-GPCR fusion in the absence and in the presence of competing parental compound. Briefly, HEK293 cells were transfected with HiBiT-GPCR constructs diluted into promoterless DNA to reduce expression and maximize translocation to the cell surface. Each tracer candidate was then screened at concentrations of 1 μM and 0.1 μM across cells expressing these fusions. Cells were treated for 1.5 h with tracer either alone or in the presence of 20 μM competing parental compound (i.e., control). BRET was measured upon addition of purified LgBiT and subsequent complementation with HiBiT genetically fused to a GPCR. The specificity of interactions was assessed through a decrease in BRET signal due to competitive displacement of the bound tracer. To further gauge the robustness of these interactions, the fold response over the control (i.e., BRETtracer/BRETcontrol) was calculated. We chose a 1.5-fold response, which translates to ≥7-fold signal over noise as the minimal threshold required to score an interaction as positive. […]. Below we highlight the screening results obtained for our exemplary fluorescent tracers based on Clozapine, Amitriptyline and AZD1283.\n(§2) HiBiT-GPCR DNA constructs were diluted in 10 mM Tris pH 8 to a final concentration of 0.01 μg/μL, arrayed in 96-well plates and stored at −20 °C. For transfection, HEK293 cells were suspended in Opti-MEM (without phenol red) supplemented with 2% fetal bovine serum (Seradigm) and 100 units/mL penicillin–streptomycin (Gibco) at a final concentration of 220,000 cells/mL and dispensed into white 96-well plates at 90 μL/well. Subsequent transfections and screens were carried using an Agilent Bravo Automated Liquid Handling Platform. First, the 96-well HiBiT DNA arrays were diluted 25-fold in Opti-MEM (without serum or phenol red) to a final concentration of 0.0004 μg/μL and 20 μL of the diluted DNAs were transferred into new 96-well plates. Next, promoterless carrier DNA (1 μg/μL) was diluted 25-fold (0.04 μg/μL) and then dispensed into the diluted arrays at 20 μL/well. Following brief mixing, Viafect transfection reagent (Promega) diluted 16-fold into Opti-MEM was dispensed into the plates at 40 μL/well. After mixing by pipetting, plates were incubated for 10 min on the pipetting station deck. The DNA-transfection reagent complexes were then added to plates containing cells. To facilitate the screen, 10 μL of DNA-transfection reagent complexes were added in duplicates to the top 4 and bottom 4 rows, resulting in two identical 48-well arrays per plate. Plates with transfected cells were incubated for 18–20 h at 37 °C/5% CO2. A screen of each tracer across the entire library using two different concentrations requires duplicate plates of transfected cells. Depending on the number of tracers being screened, transfections can be scaled up using the same ratios. The next day, for each tracer, four 20× screening solutions in tracer dilution buffer (Promega) were prepared: two duplicates at final concentration of 20 μM and two duplicates at a final concentration of 2 μM. A competing unmodified compound was added to one of each duplicate at a final concentration of 400 μM. The four resulting solutions were diluted 4-fold in Opti-MEM without serum or phenol red to generate 5× solutions (5 µM and 0.5 µM tracer +/− 100 μM competing compound). To screen the library, a BioTek MultiFlo FX liquid dispenser was used to dispense 22.5 µL of tracer solution to the top 4 rows and 22.5 µL tracer + competing compound solution to the 4 bottom rows. Plates were briefly mixed on an orbital shaker and incubated for 1.5 h at room temperature. […]"}, "[2]": {"target": "T2, CXCR2 (Homo sapiens, UniProt P25025)", "T2 construct": "purchased Promega (in-house HiBiT-GPCR construct library, NanoBRET)", "T2 sequence (P25025 1-360)": "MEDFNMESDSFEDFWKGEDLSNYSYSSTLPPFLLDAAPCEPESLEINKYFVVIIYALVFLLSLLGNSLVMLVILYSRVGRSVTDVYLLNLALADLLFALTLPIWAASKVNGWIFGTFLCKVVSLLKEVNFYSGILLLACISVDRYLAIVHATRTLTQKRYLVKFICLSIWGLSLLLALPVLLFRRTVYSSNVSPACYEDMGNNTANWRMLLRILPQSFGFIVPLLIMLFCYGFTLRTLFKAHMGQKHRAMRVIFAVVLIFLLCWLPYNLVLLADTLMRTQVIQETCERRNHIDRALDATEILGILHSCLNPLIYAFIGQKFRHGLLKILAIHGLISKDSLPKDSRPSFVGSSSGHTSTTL", "test": "NanoBRET screen HiBiT-CXCR2 in HEK293", "protocol": "as §1, §2"}, "[3]": {"target": "T3, FZD1 (Homo sapiens, UniProt Q9UP38)", "T3 construct": "purchased Promega (in-house HiBiT-GPCR construct library, NanoBRET)", "T3 sequence (Q9UP38 70-647)": "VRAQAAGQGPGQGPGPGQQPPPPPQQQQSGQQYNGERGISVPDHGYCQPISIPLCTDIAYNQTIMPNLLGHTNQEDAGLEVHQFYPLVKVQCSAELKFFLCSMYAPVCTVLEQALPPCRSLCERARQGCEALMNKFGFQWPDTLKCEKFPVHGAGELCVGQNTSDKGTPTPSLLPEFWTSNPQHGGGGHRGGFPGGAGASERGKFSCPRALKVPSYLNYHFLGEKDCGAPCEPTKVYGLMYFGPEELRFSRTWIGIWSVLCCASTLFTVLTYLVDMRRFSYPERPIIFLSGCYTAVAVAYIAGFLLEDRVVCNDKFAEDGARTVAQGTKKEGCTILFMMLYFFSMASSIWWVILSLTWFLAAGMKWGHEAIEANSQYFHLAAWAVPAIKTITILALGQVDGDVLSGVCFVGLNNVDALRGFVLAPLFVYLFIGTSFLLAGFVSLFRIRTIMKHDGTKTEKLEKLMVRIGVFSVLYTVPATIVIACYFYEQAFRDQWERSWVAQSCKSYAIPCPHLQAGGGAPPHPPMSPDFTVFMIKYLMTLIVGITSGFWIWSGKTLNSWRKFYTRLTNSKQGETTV", "test": "NanoBRET screen HiBiT-FZD1 in HEK293", "protocol": "as §1, §2"}, "[4]": {"target": "T4, TACR3 (Homo sapiens, UniProt P29371)", "T4 construct": "purchased Promega (in-house HiBiT-GPCR construct library, NanoBRET)", "T4 sequence (P29371 1-465)": "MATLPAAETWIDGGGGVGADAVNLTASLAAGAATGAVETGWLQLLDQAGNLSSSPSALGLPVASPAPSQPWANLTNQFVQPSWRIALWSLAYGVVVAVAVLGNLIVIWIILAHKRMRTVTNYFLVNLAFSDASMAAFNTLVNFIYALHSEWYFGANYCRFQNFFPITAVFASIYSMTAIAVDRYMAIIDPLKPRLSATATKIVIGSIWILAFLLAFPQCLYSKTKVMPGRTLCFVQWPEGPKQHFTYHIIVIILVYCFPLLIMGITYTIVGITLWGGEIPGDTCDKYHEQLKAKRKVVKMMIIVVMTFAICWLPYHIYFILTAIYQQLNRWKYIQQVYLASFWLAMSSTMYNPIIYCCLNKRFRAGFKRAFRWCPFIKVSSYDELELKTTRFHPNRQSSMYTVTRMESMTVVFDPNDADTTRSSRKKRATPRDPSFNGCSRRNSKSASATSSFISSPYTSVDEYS", "test": "NanoBRET screen HiBiT-TACR3 in HEK293", "protocol": "as §1, §2"}, "[5]": {"target": "T5, HTR4 (Homo sapiens, UniProt Q13639)", "T5 construct": "purchased Promega (in-house HiBiT-GPCR construct library, NanoBRET)", "T5 sequence (Q13639 whole entry)": "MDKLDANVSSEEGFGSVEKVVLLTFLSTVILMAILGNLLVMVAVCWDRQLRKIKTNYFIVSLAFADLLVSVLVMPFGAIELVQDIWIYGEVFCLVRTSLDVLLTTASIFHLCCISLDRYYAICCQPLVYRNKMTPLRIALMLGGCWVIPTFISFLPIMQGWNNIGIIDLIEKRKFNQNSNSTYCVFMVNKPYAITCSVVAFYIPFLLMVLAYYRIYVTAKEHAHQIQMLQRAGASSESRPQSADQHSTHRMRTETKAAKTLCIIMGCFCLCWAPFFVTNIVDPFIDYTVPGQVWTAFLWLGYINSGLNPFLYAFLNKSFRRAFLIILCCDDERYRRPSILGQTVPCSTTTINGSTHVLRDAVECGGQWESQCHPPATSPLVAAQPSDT", "test": "NanoBRET screen HiBiT-HTR4 in HEK293", "protocol": "as §1, §2"}}}
{"smiles": "CN(CCC=C1c2ccccc2CCc2ccccc21)C(=O)CCOCCOCCOCCOCCNC(=O)CCc1ccc2n1[B-](F)(F)[N+]1=C(c3ccc[nH]3)C=CC1=C2", "note": "[Amitriptyline-e-2-NB590]", "values": [{"measurement": "NanoBRET Fold Response", "setting": "[1]; tracer at 1μM", "result": 1.01}, {"measurement": "NanoBRET Fold Response", "setting": "[2]; tracer at 1μM", "result": 1.07}, {"measurement": "NanoBRET Fold Response", "setting": "[3]; tracer at 1μM", "result": 0.98}]}
{"smiles": "COc1ccc2c(n1)c(CCNC(C)=O)cn2CCNC(=O)CCc1ccc2n1[B-](F)(F)[N+]1=C(c3ccc[nH]3)C=CC1=C2", "note": "[Azamelatonin-1-NB590]", "values": [{"measurement": "NanoBRET Fold Response", "setting": "[4]; 0.1μM tracer", "result": 1.06}, {"measurement": "NanoBRET Fold Response", "setting": "[4]; 1μM tracer", "result": 0.87}, {"measurement": "NanoBRET Fold Response", "setting": "[5]; 0.1μM tracer", "result": 0.95}, {"measurement": "NanoBRET Fold Response", "setting": "[5]; 1μM tracer", "result": 1.02}, {"measurement": "NanoBRET Fold Response", "setting": "[1]; 0.1μM tracer", "result": 0.90}, {"measurement": "NanoBRET Fold Response", "setting": "[1]; 1μM tracer", "result": 0.93}, {"measurement": "NanoBRET Fold Response", "setting": "[2]; 0.1μM tracer", "result": 0.97}, {"measurement": "NanoBRET Fold Response", "setting": "[2]; 1μM tracer", "result": 0.98}, {"measurement": "NanoBRET Fold Response", "setting": "[3]; 0.1μM tracer", "result": 1.10}, {"measurement": "NanoBRET Fold Response", "setting": "[3]; 1μM tracer", "result": 1.10}]}
{"smiles": "COc1ccc2[nH]c(-c3ccc(CNC(=O)CCOCCOCCOCCOCCNC(=O)CCc4ccc5n4[B-](F)(F)[N+]4=C(c6ccc[nH]6)C=CC4=C5)cc3)c(CCNC(C)=O)c2n1", "note": "[AzomelatoninICO9-2-NB590]", "values": [{"measurement": "NanoBRET Fold Response", "setting": "[4]; 0.1μM tracer", "result": 1.23}, {"measurement": "NanoBRET Fold Response", "setting": "[4]; 1μM tracer", "result": 1.00}, {"measurement": "NanoBRET Fold Response", "setting": "[5]; 0.1μM tracer", "result": 1.03}, {"measurement": "NanoBRET Fold Response", "setting": "[5]; 1μM tracer", "result": 0.95}, {"measurement": "NanoBRET Fold Response", "setting": "[1]; 0.1μM tracer", "result": 1.13}, {"measurement": "NanoBRET Fold Response", "setting": "[1]; 1μM tracer", "result": 0.89}, {"measurement": "NanoBRET Fold Response", "setting": "[2]; 0.1μM tracer", "result": 1.38}, {"measurement": "NanoBRET Fold Response", "setting": "[2]; 1μM tracer", "result": 1.00}, {"measurement": "NanoBRET Fold Response", "setting": "[3]; 0.1μM tracer", "result": 0.86}, {"measurement": "NanoBRET Fold Response", "setting": "[3]; 1μM tracer", "result": 1.05}]}
{"smiles": "O=C(CCOCCOCCOCCOCCNC(=O)CCc1ccc2n1[B-](F)(F)[N+]1=C(c3ccc[nH]3)C=CC1=C2)NCCCN1CCN(C2=Nc3cc(Cl)ccc3Nc3ccccc32)CC1", "note": "[Clozapine-a-2-NB590]", "values": [{"measurement": "NanoBRET Fold Response", "setting": "[4]; TACR3, 0.1μM tracer", "result": 0.99}, {"measurement": "NanoBRET Fold Response", "setting": "[4]; TACR3, 1μM tracer", "result": 1.21}, {"measurement": "NanoBRET Fold Response", "setting": "[5]; HTR4, 0.1μM tracer", "result": 1.02}, {"measurement": "NanoBRET Fold Response", "setting": "[5]; HTR4, 1μM tracer", "result": 1.12}, {"measurement": "NanoBRET Fold Response", "setting": "[1]; C5AR2, 0.1μM tracer", "result": 0.93}, {"measurement": "NanoBRET Fold Response", "setting": "[1]; C5AR2, 1μM tracer", "result": 1.21}, {"measurement": "NanoBRET Fold Response", "setting": "[2]; CXCR2, 0.1μM tracer", "result": 1.02}, {"measurement": "NanoBRET Fold Response", "setting": "[2]; CXCR2, 1μM tracer", "result": 0.87}, {"measurement": "NanoBRET Fold Response", "setting": "[3]; FZD1, 0.1μM tracer", "result": 0.98}, {"measurement": "NanoBRET Fold Response", "setting": "[3]; FZD1, 1μM tracer", "result": 0.93}]}
{"smiles": "CN1CCN(C2=Nc3cc(Cl)ccc3Nc3ccc(CNC(=O)CCOCCOCCOCCOCCNC(=O)CCc4ccc5n4[B-](F)(F)[N+]4=C(c6ccc[nH]6)C=CC4=C5)cc32)CC1", "note": "[Clozapine-b-2-NB590]", "values": [{"measurement": "NanoBRET Fold Response", "setting": "[4]; TACR3, 0.1μM tracer", "result": 1.01}, {"measurement": "NanoBRET Fold Response", "setting": "[4]; TACR3, 1μM tracer", "result": 1.05}, {"measurement": "NanoBRET Fold Response", "setting": "[5]; HTR4, 0.1μM tracer", "result": 0.98}, {"measurement": "NanoBRET Fold Response", "setting": "[5]; HTR4, 1μM tracer", "result": 0.99}, {"measurement": "NanoBRET Fold Response", "setting": "[1]; C5AR2, 0.1μM tracer", "result": 0.99}, {"measurement": "NanoBRET Fold Response", "setting": "[1]; C5AR2, 1μM tracer", "result": 1.01}, {"measurement": "NanoBRET Fold Response", "setting": "[2]; CXCR2, 0.1μM tracer", "result": 0.98}, {"measurement": "NanoBRET Fold Response", "setting": "[2]; CXCR2, 1μM tracer", "result": 1.06}, {"measurement": "NanoBRET Fold Response", "setting": "[3]; FZD1, 0.1μM tracer", "result": 1.00}, {"measurement": "NanoBRET Fold Response", "setting": "[3]; FZD1, 1μM tracer", "result": 0.99}]}
{"smiles": "COc1ccccc1N1CCN(CCCCN2C(=O)c3ccc(CNC(=O)CCOCCOCCOCCOCCNC(=O)CCc4ccc5n4[B-](F)(F)[N+]4=C(c6ccc[nH]6)C=CC4=C5)cc3C2=O)CC1", "note": "[NAN-190-2-NB590]", "values": [{"measurement": "NanoBRET Fold Response", "setting": "[1]; C5AR2, tracer 0.1μM", "result": 1.02}, {"measurement": "NanoBRET Fold Response", "setting": "[2]; CXCR2, tracer 0.1μM", "result": 1.08}, {"measurement": "NanoBRET Fold Response", "setting": "[2]; CXCR2, tracer 1μM", "result": 0.92}, {"measurement": "NanoBRET Fold Response", "setting": "[3]; FZD1, tracer 0.1μM", "result": 0.99}, {"measurement": "NanoBRET Fold Response", "setting": "[3]; FZD1, tracer 1μM", "result": 1.06}]}
